pIC50, pKi: −log10 of the molar value. Where two headings read alike, the source gives them in different places.
Experiments:
[1] = molecular target: intracellular GCN2 (phosphorylation of the GCN2 substrate eIF2α) (Homo sapiens, UniProt Q9P2K8); assay: GCN2 cellular inhibition assay (AlphaScreen SureFire P-eIF2α Ser51, borrelidin-treated U2OS cells); assay type: cell-based
In short: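 U2OS cells, adhered overnight, received compounds in 4-fold serial dilutions from 40 μM final, then 10 μM borrelidin for 1 h at 37 °C. Lysates were read by AlphaScreen for phospho-eIF2α Ser51; percent inhibition was set against borrelidin-only wells.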

GCN2 kinase = GCN2 kinase (Homo sapiens, UniProt Q9P2K8); assay: GCN2 enzyme inhibition assay (Transcreener ADP2 fluorescence polarization); assay type: biochemical; conditions: 280 μM ATP
In short: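 FP detection of ADP (antibody plus Alexa633 tracer) after a 1 h, 25 °C kinase reaction. Enzyme 4 nM, ATP 280 μM, (RS)7 peptide 200 μM, Tris pH 7.5 buffer with MgCl2 and DTT. Percent inhibition fitted by non-linear tight-binding algorithm for IC50 and Ki(app).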

[2] = compounds of Formula II, biomarker assay, phosphorylated eIF2α Ser51 in borrelidin-treated U2OS cells
[3] = compounds of Formula II, 4 nM GCN2 kinase
[4] = compounds of Formula IV, biomarker assay, phosphorylated eIF2α Ser51 in borrelidin-treated U2OS cells
[5] = Enzyme activity for compounds of Formula IV, Ki(app), 25° C.

Sequence of intracellular GCN2 (phosphorylation of the GCN2 substrate eIF2α) (Q9P2K8 whole entry): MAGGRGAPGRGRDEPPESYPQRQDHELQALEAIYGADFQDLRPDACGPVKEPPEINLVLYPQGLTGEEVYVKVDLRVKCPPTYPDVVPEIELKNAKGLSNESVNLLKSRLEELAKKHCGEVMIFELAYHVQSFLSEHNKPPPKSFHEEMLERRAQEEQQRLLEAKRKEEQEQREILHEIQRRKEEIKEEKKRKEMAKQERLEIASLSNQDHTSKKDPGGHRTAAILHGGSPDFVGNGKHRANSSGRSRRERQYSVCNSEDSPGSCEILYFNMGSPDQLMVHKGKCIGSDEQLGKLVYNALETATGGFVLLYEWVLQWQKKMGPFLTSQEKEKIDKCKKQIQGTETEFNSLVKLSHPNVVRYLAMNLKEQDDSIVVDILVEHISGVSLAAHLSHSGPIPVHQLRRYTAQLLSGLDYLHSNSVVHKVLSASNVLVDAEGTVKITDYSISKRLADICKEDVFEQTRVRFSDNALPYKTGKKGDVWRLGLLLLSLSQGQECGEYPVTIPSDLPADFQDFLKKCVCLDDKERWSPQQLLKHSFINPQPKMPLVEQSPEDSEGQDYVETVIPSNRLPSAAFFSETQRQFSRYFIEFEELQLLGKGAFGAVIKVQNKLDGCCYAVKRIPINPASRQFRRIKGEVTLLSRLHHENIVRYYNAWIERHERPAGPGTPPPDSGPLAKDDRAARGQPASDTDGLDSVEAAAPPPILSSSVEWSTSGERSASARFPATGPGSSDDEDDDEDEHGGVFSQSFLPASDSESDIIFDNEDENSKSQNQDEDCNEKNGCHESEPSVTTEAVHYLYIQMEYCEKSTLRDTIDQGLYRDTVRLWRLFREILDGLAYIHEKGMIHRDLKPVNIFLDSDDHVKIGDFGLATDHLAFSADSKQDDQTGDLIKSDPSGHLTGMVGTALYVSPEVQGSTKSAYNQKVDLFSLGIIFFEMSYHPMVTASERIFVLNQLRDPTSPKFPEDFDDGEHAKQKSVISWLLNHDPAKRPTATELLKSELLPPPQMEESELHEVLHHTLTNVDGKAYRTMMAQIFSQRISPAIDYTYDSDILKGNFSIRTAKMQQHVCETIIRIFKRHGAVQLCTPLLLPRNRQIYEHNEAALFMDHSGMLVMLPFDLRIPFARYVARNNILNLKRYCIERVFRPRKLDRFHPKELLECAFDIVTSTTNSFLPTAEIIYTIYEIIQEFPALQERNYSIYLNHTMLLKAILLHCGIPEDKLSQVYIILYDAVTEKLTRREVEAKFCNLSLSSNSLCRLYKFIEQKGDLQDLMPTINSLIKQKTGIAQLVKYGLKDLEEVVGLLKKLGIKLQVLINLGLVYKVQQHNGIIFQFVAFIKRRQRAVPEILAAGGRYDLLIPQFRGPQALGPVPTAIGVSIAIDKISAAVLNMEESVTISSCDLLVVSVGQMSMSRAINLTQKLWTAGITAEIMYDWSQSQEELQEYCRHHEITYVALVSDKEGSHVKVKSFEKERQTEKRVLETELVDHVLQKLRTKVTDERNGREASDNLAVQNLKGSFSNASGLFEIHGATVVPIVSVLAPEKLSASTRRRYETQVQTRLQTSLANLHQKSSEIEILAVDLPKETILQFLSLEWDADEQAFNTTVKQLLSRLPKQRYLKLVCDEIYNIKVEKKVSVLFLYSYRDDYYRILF
Sequence of GCN2 kinase (Q9P2K8 whole entry): as above

pIC50 [1, 2] | pKi (GCN2 kinase; [3]) | pIC50 [1, 4] | pKi (GCN2 kinase; [5]) | SMILES | also measured
– | – | 5.30 to 6.30 | > 8.00 | CC1CN(c2ccnc(-c3cnc4cnc(C(F)(F)F)cn34)n2)C(C)C(c2c[nH]cn2)O1 (centres unmarked) [IV-525, 2-(1H-Imidazol-4-yl)-3,6-dimethyl-4-(2-(6-(trifluoromethyl)imidazo[1,2-a]pyrazin-3-yl)pyrimidin-4-yl)morpholine] | –
– | – | 5.30 to 6.30 | 7.00 to 8.00 | FC(F)(F)c1cn2c(-c3nccc(N4CCC(c5c[nH]nc5C5CC5)C4)n3)cnc2cn1 (centres unmarked) [IV-576, 3-(4-(3-(3-Cyclopropyl-1H-pyrazol-4-yl)pyrrolidin-1-yl)pyrimidin-2-yl)-6-(trifluoromethyl)imidazo[1,2-a]pyrazine] | –
– | – | 5.30 to 6.30 | > 8.00 | CC1C(c2cn[nH]c2)NCCN1c1ccnc(-c2cnc3cnc(Cl)cn23)n1 (single isomer, unassigned) [IV-230, 6-Chloro-3-(4-(2-methyl-3-(1H-pyrazol-4-yl)piperazin-1-yl)pyrimidin-2-yl)imidazo[1,2-a]pyrazine] | –
– | – | < 5.30 | 6.00 to 7.00 | CNC(=O)C1CCCN(c2ccnc(-c3cnc4cnc(C(F)F)cn34)n2)C1 (centres unmarked) [IV-44, 1-(2-(6-(Difluoromethyl)imidazo[1,2-a]pyrazin-3-yl)pyrimidin-4-yl)-N-methylpiperidine-3-carboxamide] | –
– | – | < 5.30 | 6.00 to 7.00 | OCC1CCCN(c2ccnc(-c3cnc4cnc(C(F)(F)F)cn34)n2)C1 (centres unmarked) [IV-439, (1-(2-(6-(Trifluoromethyl)imidazo[1,2-a]pyrazin-3-yl)pyrimidin-4-yl)piperidin-3-yl)methanol] | –
– | – | > 6.30 | > 8.00 | CC1CN(c2ccnc(-c3cnc4cnc(C(F)(F)F)cn34)n2)CC(c2cn[nH]c2)O1 (single isomer, unassigned) [IV-14, 2-Methyl-6-(1H-pyrazol-4-yl)-4-(2-(6-(trifluoromethyl)imidazo[1,2-a]pyrazin-3-yl)pyrimidin-4-yl)morpholine] | –
– | – | 5.30 to 6.30 | > 8.00 | CC1CN(c2ccnc(-c3cnc4cnc(Br)cn34)n2)C(C)C(c2c[nH]cn2)N1 (centres unmarked) [IV-373, 3-(4-(3-(1H-Imidazol-4-yl)-2,5-dimethylpiperazin-1-yl)pyrimidin-2-yl)-6-bromoimidazo[1,2-a]pyrazine] | –
– | – | < 5.30 | 6.00 to 7.00 | FC(F)c1cn2c(-c3nccc(N4CCCC5CCCC54)n3)cnc2cn1 (centres unmarked) [IV-130, 6-(Difluoromethyl)-3-(4-(octahydro-1H-cyclopenta[b]pyridin-1-yl)pyrimidin-2-yl)imidazo[1,2-a]pyrazine] | –
– | – | > 6.30 | – | C[C@H]1C[C@H](c2c[nH]nc2F)CN(c2ccnc(-c3cnc4cnc(C(F)(F)F)cn34)n2)C1 [IV-764, 3-(4-((3R,5S)-3-(3-fluoro-1H-pyrazol-4-yl)-5-methylpiperidin-1-yl)pyrimidin-2-yl)-6-(trifluoromethyl)imidazo[1,2-a]pyrazine] | pIC50 (GCN2 kinase; compounds of Formula IV, 4 nM GCN2 kinase): 6.00 to 8.00
– | – | 5.30 to 6.30 | 7.00 to 8.00 | C[C@@H]1CN(c2ccnc(-c3cnc4cnc(Br)cn34)n2)C[C@H](c2cn[nH]c2)N1 (racemic) [IV-344, Cis-6-Bromo-3-(4-(3-methyl-5-(1H-pyrazol-4-yl)piperazin-1-yl)pyrimidin-2-yl)imidazo[1,2-a]pyrazine] | –
– | – | < 5.30 | 7.00 to 8.00 | Cc1n[nH]cc1C1CCCN(c2ccnc(-c3cnc4cnc(C(F)F)cn34)n2)C1 (centres unmarked) [IV-97, 6-(Difluoromethyl)-3-(4-(3-(3-methyl-1H-pyrazol-4-yl)piperidin-1-yl)pyrimidin-2-yl)imidazo[1,2-a]pyrazine] | –

The remaining lines, values behind:

SMILES | pIC50 [1, 2] | pKi (GCN2 kinase; [3]) | pIC50 [1, 4] | pKi (GCN2 kinase; [5]) | also measured
CS(=O)(=O)NC(=O)C1CCCN(c2cc(-c3cnc4ccc(C(F)F)nn34)ncn2)C1 (centres unmarked) [II-460, 1-(6-(6-(Difluoromethyl)imidazo[1,2-b]pyridazin-3-yl)pyrimidin-4-yl)-N-(methylsulfonyl)piperidine-3-carboxamide] | < 5.30 | 6.00 to 8.00 | – | – | –
CNc1ccc2ncc(-c3ccnc(N4CCCC(CNS(C)(=O)=O)C4)c3)n2n1 (centres unmarked) [II-179, N-((1-(4-(6-(Methylamino)imidazo[1,2-b]pyridazin-3-yl)pyridin-2-yl)piperidin-3-yl)methyl)methanesulfonamide] | 5.30 to 6.30 | 6.00 to 8.00 | – | – | –
O=S(=O)(N[C@H]1CCCN(c2cc(-c3cnc4ccc(C(F)F)nn34)ncn2)C1)C1CC1 [II-442, (S)—N-(1-(6-(6-(Difluoromethyl)imidazo[1,2-b]pyridazin-3-yl)pyrimidin-4-yl)piperidin-3-yl)cyclopropanesulfonamide] | < 5.30 | 6.00 to 8.00 | – | – | –
CC1C(CNS(C)(=O)=O)OCCN1c1cc(-c2cnc3ccc(C(F)F)nn23)ncn1 (centres unmarked) [II-345, N-((4-(6-(6-(Difluoromethyl)imidazo[1,2-b]pyridazin-3-yl)pyrimidin-4-yl)-3-methylmorpholin-2-yl)methyl)methanesulfonamide] | > 6.30 | > 8.00 | – | – | –
CC1(F)CCN(c2cc(-c3cnc4ccc(C(F)F)nn34)ncn2)CC1CNS(C)(=O)=O (single isomer, unassigned) [II-389, N-((1-(6-(6-(Difluoromethyl)imidazo[1,2-b]pyridazin-3-yl)pyrimidin-4-yl)-4-fluoro-4-methylpiperidin-3-yl)methyl)methanesulfonamide] | 5.30 to 6.30 | 6.00 to 8.00 | – | – | –
FC(F)c1ccc2ncc(-c3cc(N4CCOCC4)ncn3)n2n1 [II-251, 4-(6-(6-(Difluoromethyl)imidazo[1,2-b]pyridazin-3-yl)pyrimidin-4-yl)morpholine] | < 5.30 | 6.00 to 8.00 | – | – | –
O=C1NCC2CCN(c3cc(-c4cnc5ccc(C(F)F)nn45)ncn3)CC12 (centres unmarked) [II-200, 5-(6-(6-(Difluoromethyl)imidazo[1,2-b]pyridazin-3-yl)pyrimidin-4-yl)octahydro-3H-pyrrolo[3,4-c]pyridin-3-one] | < 5.30 | 6.00 to 8.00 | – | – | –
CC1C(CNS(C)(=O)=O)N(C2CC2)CCN1c1cc(-c2cnc3ccc(C(F)F)nn23)ncn1 (single isomer, unassigned) [II-478, N-((1-Cyclopropyl-4-(6-(6-(difluoromethyl)imidazo[1,2-b]pyridazin-3-yl)pyrimidin-4-yl)-3-methylpiperazin-2-yl)methyl)methanesulfonamide] | 5.30 to 6.30 | 6.00 to 8.00 | – | – | –
CC(=O)N1CCN(c2cc(-c3cnc4ccc(C(F)F)nn34)ncn2)CC1 [II-186, 1-(4-(6-(6-(Difluoromethyl)imidazo[1,2-b]pyridazin-3-yl)pyrimidin-4-yl)piperazin-1-yl)ethan-1-one] | 5.30 to 6.30 | 6.00 to 8.00 | – | – | –
CS(=O)(=O)NCC1CC(N2CC(F)C2)CN(c2cc(-c3cnc4ccc(C(F)F)nn34)ncn2)C1 (centres unmarked) [II-429, N-((1-(6-(6-(Difluoromethyl)imidazo[1,2-b]pyridazin-3-yl)pyrimidin-4-yl)-5-(3-fluoroazetidin-1-yl)piperidin-3-yl)methyl)methanesulfonamide] | < 5.30 | 6.00 to 8.00 | – | – | –
CS(=O)(=O)NC[C@H]1CN(c2cc(-c3cnn4cc(F)c(C(F)F)nc34)ncn2)CCO1 [III-5, N-[[(2R)-4-[6-[5-(Difluoromethyl)-6-fluoro-pyrazolo[1,5-a]pyrimidin-3-yl]pyrimidin-4-yl]morpholin-2-yl]methyl]methanesulfonamide] | – | – | – | – | pIC50 ([1]; compounds of Formula III, U2OS cells, 10 μM borrelidin, 1 h, read-out: GCN2 Biomarker (IC50)): < 5.30; pKi (GCN2 kinase; compounds of Formula III, 4 nM GCN2 kinase): 6.00 to 8.00
OC[C@H]1CCCN(c2cc(-c3cnc4ccc(C(F)F)nn34)ncn2)C1 [II-519, (S)-(1-(6-(6-(Difluoromethyl)imidazo[1,2-b]pyridazin-3-yl)pyrimidin-4-yl)piperidin-3-yl)methanol] | 5.30 to 6.30 | 6.00 to 8.00 | – | – | –
CN1CCN(c2cc(-c3cnc4ccc(C(F)F)nn34)ccn2)CC1CNS(C)(=O)=O (centres unmarked) [II-98, N-((4-(4-(6-(Difluoromethyl)imidazo[1,2-b]pyridazin-3-yl)pyridin-2-yl)-1-methylpiperazin-2-yl)methyl)methanesulfonamide] | 5.30 to 6.30 | 6.00 to 8.00 | – | – | –
CS(=O)(=O)NCC1CN(c2cc(-c3cnc4ccc(C(F)F)nn34)ncn2)CC2(CC2)C1(F)F (centres unmarked) [II-528, N-((5-(6-(6-(Difluoromethyl)imidazo[1,2-b]pyridazin-3-yl)pyrimidin-4-yl)-8,8-difluoro-5-azaspiro[2.5]octan-7-yl)methyl)methanesulfonamide] | > 6.30 | > 8.00 | – | – | –
CC1CCC(CNS(C)(=O)=O)CN1c1cc(-c2cnc3ccc(C(F)F)nn23)ncc1F (centres unmarked) [II-271, N-[[1-[2-[6-(Difluoromethyl)imidazo[1,2-b]pyridazin-3-yl]-5-fluoro-4-pyridyl]-6-methyl-3-piperidyl]methyl]methanesulfonamide] | 5.30 to 6.30 | 6.00 to 8.00 | – | – | –
O=C1CC2(CCN(c3cc(-c4cnc5ccc(C(F)F)nn45)ncn3)CC2)N1 [II-52, 7-(6-(6-(Difluoromethyl)imidazo[1,2-b]pyridazin-3-yl)pyrimidin-4-yl)-1,7-diazaspiro[3.5]nonan-2-one] | < 5.30 | 6.00 to 8.00 | – | – | –
CC1CN(c2ccnc(-c3cnc4sc(C(F)(F)F)cn34)n2)C(C)C(c2cn[nH]c2)N1 (single isomer, unassigned) [Compound V-12, 5-[4-[2,5-Dimethyl-3-(1H-pyrazol-4-yl)piperazin-1-yl]pyrimidin-2-yl]-2-(trifluoromethyl)imidazo[2,1-b]thiazole] | – | – | – | – | pIC50 ([1]; compounds of Formula V, U2OS cells, 10 μM borrelidin, 1 h, read-out: GCN2 Biomarker (IC50)): 5.30 to 6.30; pKi (GCN2 kinase; compounds of Formula V, 4 nM GCN2 kinase): 6.00 to 7.00

Source: patent publication US10988477B2 (Merck Patent GmbH, priority 2018, dated 2021)
